According to PubChem BioAssay (NCI):
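Step 1: Grow cells in 96-well plates. Step 2: Expose to compound for 48 hours at 5 concentrations. Step 3: Interpolate endpoints linearly; if unreached, use highest concentration. Definition used: TGI = concentration required for complete inhibition of growth.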 Where a SMILES comes first, the peptide text is derived from it. The star is where a group is joined. Boc = CC(C)(C)OC(=O)*

How the values were obtained:
Assay in all cases: inhibition of tumour cell growth, NCI panel, 48 h
OVCAR-4 ovarian = test system: OVCAR-4 ovarian
ACHN renal = test system: ACHN renal
NCI-H226 lung = test system: NCI-H226 lung
A549 NSCLC = test system: A549 NSCLC
OVCAR-3 ovarian = test system: OVCAR-3 ovarian
MDA-MB-231 breast = test system: MDA-MB-231 breast
UACC-257 melanoma = test system: UACC-257 melanoma
SK-MEL-2 melanoma = test system: SK-MEL-2 melanoma
786-0 renal = test system: 786-0 renal
MCF7 breast = test system: MCF7 breast
HCC-2998 colon = test system: HCC-2998 colon

SMILES	TGI (OVCAR-4 ovarian) [µM]	TGI (ACHN renal) [µM]	TGI (NCI-H226 lung) [µM]	TGI (A549 NSCLC) [µM]	TGI (OVCAR-3 ovarian) [µM]	TGI (MDA-MB-231 breast) [µM]	TGI (UACC-257 melanoma) [µM]	TGI (SK-MEL-2 melanoma) [µM]	TGI (786-0 renal) [µM]	TGI (MCF7 breast) [µM]	TGI (HCC-2998 colon) [µM]
Cc1ccc(NC(=O)c2cc(S(=O)(=O)Nc3nc4ncccc4[nH]3)c(SSc3cc(Cl)c(C(=O)Nc4ccc(C)cc4)cc3S(=O)(=O)Nc3nc4ncccc4[nH]3)cc2Cl)cc1	> 100	> 100	> 100	> 100	> 100	> 100	> 100	> 100	> 100	> 100	> 100
CC(=O)OCc1ccc2oc(=O)c(C(=O)Oc3ccccc3)cc2c1	> 100	> 100	> 100	> 100	> 100	84.2	> 100	> 100	45.8	> 100	> 100
CCCCCCCCCCCCCCCCCCN(C)CC(COP(=O)([O-])OCC[N+](C)(C)C)OC (configuration not stated)	29.6	48.8	42.4	46.8	51.6	> 100	56.4	53.7	14.7	> 62.3	24.2
O=C1Oc2cc(O)cc(/C=C/c3ccc(O)cc3)c2[C@@]12c1c(O)cc(O)cc1OC2c1cccc(O)c1 (some centres not stated)	> 100	> 100	93.2	> 100	> 100	95.9	67.5	54.8	59.7	> 100	46.2
C=C(Br)CNC(=O)CCC(=O)NCC(=C)Br	> 100	> 100	> 100	> 100	> 100	> 100	> 100	> 100	> 100	> 100	> 100
C=C(C)[C@@H]1CCC2=C[C@H](OC2=O)[C@@]2(C)C[C@@H]2C2=CC(C)=C(O2)[C@H]1O	> 75	> 75	> 75	> 75	> 75	> 75	> 75	> 75	> 75	> 75	> 75
N[C@H]1CCCC[C@@H]1N1C(=O)c2ccccc2C1(O)c1ccc(Cl)cc1 (some centres not stated)	24.6	27	31.3	25.2	21.5	27.5	11.7	30.6	26.4	27.5	3.5
O=[N+]([O-])c1cc(-c2nc(-c3ccccc3)c(-c3ccccc3)[nH]2)c(O)c([N+](=O)[O-])c1	> 100	46.7	40.7	> 100	> 100	49.9	50.9	38.3	48.6	72.9	30.8
OCCNCNc1nc(NCNCCO)nc(N(CNCCO)CNCCO)n1	> 65.4	> 68.9	47.1	> 78.2	58.7	52.7	40	40.9	36.5	> 78.9	36.4
O=[N+]([O-])c1ccc(N/N=C/c2ccc(OCCCCCCCCCCCO)cc2)c([N+](=O)[O-])c1	13.7	> 71.7	37.3	> 38.9	> 100	> 94.7	15.2	56.1	4	> 93.6	76.6
COc1ccc(C(=O)/C=C/c2cc(O)c(O)c(F)c2F)c(OC)c1	> 100	> 100	56.6	> 100	85.5	58.2	41.8	33.6	41.9	49.1	16.8
N#Cc1cnc(N)nc1NCC1(CO)CC(CCc2ccccc2)C1 (configuration not stated)	> 100	> 100	> 100	> 100	> 100	> 100	> 100	> 100	> 100	> 100	> 100
N#Cc1c(N)nc(Sc2ccccc2N)c(C#N)c1-c1ccc(Cl)cc1	> 100	39.5	> 100	> 75.2	31.9	35.7	62.9	18.2	42.7	29.6	36
Cc1cc(=O)oc2c(CNC(Cc3ccccc3)C(=O)O)c(O)ccc12 (configuration not stated)	> 100	> 100	> 100	> 100	> 100	> 100	> 100	> 100	> 100	> 100	> 100
CC(=O)O[C@H]1[C@H](OC(=O)CC(C)(O)CC(=O)O)C[C@]2(C)C3=C(CCC2C1(C)C)[C@]1(C)CC[C@H]([C@H]2CC[C@H](C(C)(C)O)OC2O)[C@@]1(C)[C@@H](O)C3 (some centres not stated)	37.8	31.2	53.8	98	30.4	32.4	35.4	37.1	37.3	45.8	31.7
CC(C(O)c1ccccc1)C(O)(C(F)(F)F)C(F)(F)F (configuration not stated)	> 100	> 100	> 100	> 100	> 100	> 100	> 100	> 100	> 100	> 100	> 100
O=C1CSC(c2cccc([N+](=O)[O-])c2)N1c1ccc(-n2c(-c3ccccc3)nc3ccccc3c2=O)cc1 (configuration not stated)	> 100	> 100	> 100	> 100	> 100	> 100	> 100	> 100	> 100	> 100	> 100
Cc1ccccc1S(=O)(=O)Nn1cnc2ccc(S(=O)(=O)Nc3ccc(Cl)cc3)cc2c1=O	> 100	> 100	> 100	> 100	> 100	> 100	> 100	> 100	> 100	> 100	> 100
CO/N=C(\C)CCC#Cc1ccccc1C(=O)OC	> 10	> 10	> 10	> 10	> 10	> 10	> 10	> 10	> 10	> 10	> 10
COC(=O)C(Cc1c[nH]c2ccccc12)NC(=O)C(Cc1c[nH]c2ccccc12)NC(=O)C(Cc1c[nH]c2ccccc12)NC(=O)C(Cc1c[nH]c2ccccc12)NC(=O)C(Cc1c[nH]c2ccccc12)NC(=O)C(Cc1c[nH]c2ccccc12)NC(=O)C(Cc1c[nH]c2ccccc12)NC(=O)C(Cc1c[nH]c2ccccc12)NC(=O)OC(C)(C)C (configuration not stated) (Boc-WWWWWWWW-OMe; configuration not given here)	> 100	> 100	> 100	> 100	> 100	> 100	> 100	> 100	> 100	> 100	> 100
O=C1CC(c2ccccc2)n2cccc21 (configuration not stated)	> 100	> 100	> 100	> 100	> 100	> 100	> 100	> 100	> 100	> 100	> 100
COC(=O)C(CCSC)NC(=O)Cc1ccc(C(=O)c2ccccc2)cc1 (configuration not stated)	> 100	> 100	> 100	> 100	> 100	> 100	> 100	> 100	> 100	> 100	> 100
Cc1ccc(S(=O)(=O)NNCNC(=O)c2ccccc2)cc1	> 100	> 100	> 100	> 100	> 100	> 100	> 100	> 100	> 100	> 100	> 100
CCOC(=O)c1c(N2CCOCC2)[nH]c(=O)c(C(c2ccco2)c2c(O)c(C(=O)OCC)c(N3CCOCC3)[nH]c2=O)c1O	> 100	> 100	> 100	> 100	> 100	> 100	> 100	> 100	> 100	> 100	> 100
COc1ccc2c(c1)CCc1c-2n(CCN2CCCCC2)c2ccc(OC)cc12	> 100	> 100	56.7	> 100	> 100	> 100	> 100	> 100	> 100	> 100	> 100
Cc1ccnc(NC(NC(=O)c2ccccc2)(C(F)(F)F)C(F)(F)F)c1	> 100	> 100	> 100	> 100	> 100	> 100	> 100	> 100	> 100	> 100	> 100
Cn1c2ccccc2c(=O)c2cccc(C(=O)NC(CCC(N)=O)C(=O)O)c21 (configuration not stated)	> 100	> 100	> 100	> 100	> 100	> 100	> 100	> 100	> 100	> 100	> 100
